Results taken from US8921304B2, “Modified ubiquitin proteins having a specific binding activity for the extradomain B of fibronectin” (Scil Proteins GmbH, priority 2009, dated 2014).
“Also recorded” adds a separate entry of the source. Read-outs that look alike come from different tables or passages of the source.

Experiments:
[1] = molecular target: T1, Human fibronectin lacking the ED-B domain (h6789) (Homo sapiens, UniProt P02751); assay: concentration dependent ELISA, negative control fibronectin fragment without ED-B; type: binding; settings: conc.-ELISA, open circles
T1 construct: Human fibronectin lacking the ED-B domain (h6789)
T1 sequence (P02751 1085-1446 isoform P02751-1): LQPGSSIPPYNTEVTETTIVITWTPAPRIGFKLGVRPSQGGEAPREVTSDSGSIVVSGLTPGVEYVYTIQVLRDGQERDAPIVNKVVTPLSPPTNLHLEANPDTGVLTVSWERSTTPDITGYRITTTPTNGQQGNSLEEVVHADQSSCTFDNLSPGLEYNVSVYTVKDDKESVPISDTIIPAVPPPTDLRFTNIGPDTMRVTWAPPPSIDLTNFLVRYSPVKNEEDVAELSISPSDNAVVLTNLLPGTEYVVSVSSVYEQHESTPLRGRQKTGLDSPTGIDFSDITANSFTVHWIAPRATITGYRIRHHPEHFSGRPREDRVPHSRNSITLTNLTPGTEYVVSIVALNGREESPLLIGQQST

[2] = molecular target: ED-B containing fibronectin fragment (67B89) (Homo sapiens, UniProt P02751); assay: label-free interaction assay using BIACORE; type: binding
Sequence of ED-B containing fibronectin fragment (67B89) (P02751 1085-1537 limits assumed): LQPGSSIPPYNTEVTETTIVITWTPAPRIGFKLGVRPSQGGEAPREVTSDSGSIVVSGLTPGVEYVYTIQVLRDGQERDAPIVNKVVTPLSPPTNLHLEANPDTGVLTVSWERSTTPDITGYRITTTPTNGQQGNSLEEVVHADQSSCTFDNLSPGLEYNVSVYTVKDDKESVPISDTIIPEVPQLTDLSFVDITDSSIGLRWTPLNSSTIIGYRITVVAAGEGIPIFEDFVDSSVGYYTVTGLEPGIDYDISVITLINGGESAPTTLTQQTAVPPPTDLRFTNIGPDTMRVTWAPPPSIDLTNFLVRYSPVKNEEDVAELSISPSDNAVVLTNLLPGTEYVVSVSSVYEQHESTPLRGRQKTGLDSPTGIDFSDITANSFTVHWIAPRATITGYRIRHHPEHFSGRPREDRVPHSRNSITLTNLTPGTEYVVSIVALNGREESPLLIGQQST
Description: Different concentrations of the variant were analyzed (for example, 0-200 nM of the variant, preferably 1041-D11) for binding to an ED-B containing fibronectin fragment (referred to as 67B89) immobilized on a CMS-chip (BIACORE®) using methods known to those skilled in the art. The obtained data were processed via the BIAevaluation software and 1:1-Langmuir-fitting. The kinetic binding constants were kon=7.6*10^5 M^−1s^−1; koff=7.7*10^−4 s^−1. The kinetic binding constants were kon=4.5*10^5 M^−1 s^−1; koff 5.0^*10^−4 s^−1.

L929 cells = assay: L929 apoptosis assay (TNF-alpha activity); type: cell-based
Description: The physiological TNF-alpha-activity of TNF-alpha-modified ubiquitin based ED-B binding fusions has been determined using the L929 apoptosis assay (Flick et al., 1984 J. Immunol. Methods. 68:167-175). In this assay, TNF-alpha efficiently stimulates cell death in actinomycinD sensitized cells at EC50 values in the picomolar range.
Cells have been resuspended in medium containing FBS and antibiotics. A cell suspension of 100 μl of a densitiy of 3.5×10^5 cells/ml has been seeded into the wells of a 96 well standard cell culture plate followed by over night incubation in a humidified CO2 incubator. Thereafter, the culture medium has been removed and 50 μl of medium containing FBS, ActinomycinD and antibiotics has been added to each well followed by a further 30 min incubation time. Thereafter, 50 μl of the test items, TNF-alpha-modified ubiquitin based ED-B binding-fusions or the human recombinant TNF-alpha control, at an appropriate concentration range of between 10^−7 and 10^−18 M, have been added. After a further 48 h incubation time the metabolic activity as a measure of cell survival was determined using WST-1 reagent (Roche).
Per test item at least three independent experiments have been conducted, each of them in triplicates. […]
The quantitative evaluation is based on the EC50-value, i.e. the value according to the test item concentration promoting the survival of half of the cells.

F9 teratoma = type: in vivo; settings: for effect on tumor growth: stage 1
Description: To establish the therapeutic efficacy of 1041-D11-TNFalpha, the compound was tested on F9 teratoma (see Borsi et al., 2003 Blood 102, 4384-4392) in mouse models. […] F9 teratoma is an aggressive tumor with high vascular density. […] The experimental schedule for the efficacy study was adapted from Borsi, 2003.
Stage 1 defined the pharmacologic active and tolerable dose with endpoints relating to the ratio of tumor vs. body weight, weight loss and survival. […]
Stage 2 of the study defined the dose-dependent efficacy with Melphalan having as endpoint the retardation of tumor growth (animal weight loss>10%, tumor>10% body weight, ulceration of tumor). In the study, 1041D11/mTNFa, murine TNFa, in combination with melphalan were tested.

EDB expressing cells = assay: binding specificity of the TNF-alpha fusion in cell culture (FIG. 17E); type: cell-based
[3] = molecular target: fibronectin fragment 67B89 (ED-B) (Homo sapiens, UniProt P02751); assay: complex-formation analysis by SE-HPLC with 67B89; type: binding; settings: 0.72 nmol each, 1 h at RT
Sequence of fibronectin fragment 67B89 (ED-B) (P02751 1085-1537 limits assumed): as above
Description: (§1) For the analysis of complex formation, Tricorn Superdex 75 5/150 GL columns (GE-Healthcare) (V=3 ml) was used, protein amount of 50 μl was applied. Further conditions: buffer: 1×PBS, pH 7.3, flow-rate: 0.3 ml/min, run: 45 min (injection of sample: after 15 min). Condition: 0.72 nmol 1041-D11 protein+0.72 nmol ED-B (herein referred to 67B89 or also as a negative control 6789) incubated for 1 h at RT; then applied to column for analysis of complex-formation. In FIGS. 14A and 14B, only the variant is shown in black, only the target ED-B is shown in blue, the variant binding building a complex with ED-B in pink.

[4] = molecular target: T2, fibronectin fragment 6789 without ED-B (Homo sapiens, UniProt P02751); assay: complex-formation analysis by SE-HPLC with 6789; type: binding; settings: 0.72 nmol each, 1 h at RT
T2 construct: fibronectin fragment 6789 without ED-B
T2 sequence (P02751 1089-1449 isoform P02751-1): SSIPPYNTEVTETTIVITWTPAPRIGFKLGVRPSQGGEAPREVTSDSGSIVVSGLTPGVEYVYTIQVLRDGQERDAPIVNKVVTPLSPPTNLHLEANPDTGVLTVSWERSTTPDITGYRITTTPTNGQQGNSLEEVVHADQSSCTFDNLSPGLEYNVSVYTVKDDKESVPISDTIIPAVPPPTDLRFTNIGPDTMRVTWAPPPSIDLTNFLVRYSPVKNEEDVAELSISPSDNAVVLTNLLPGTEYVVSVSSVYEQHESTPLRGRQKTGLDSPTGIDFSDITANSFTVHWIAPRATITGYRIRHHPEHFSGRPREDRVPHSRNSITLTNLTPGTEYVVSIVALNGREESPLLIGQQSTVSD
Description: as §1

[5] = test system: human fetal lung fibroblast cells (Wi38); assay: binding to cell culture cells, Wi38; type: cell-based; settings: immunofluorescence
Description: (§2) The binding of variant 1041-D11 to cell culture cells was tested. Different cell culture cells were analysed, including normal human fetal lung fibroblast cells having high expression levels of ED-B (Wi38 cells), a mouse embryonic fibroblast cell line (Balb 3T3); a stromal cell line, derived from mouse bone marrow (ST-2) monocytes/macrophages (RAW 264.7), NHDF cells and murine fibroblast cells (LM).
The negative control cell type NHDF are primary normal fibroblast cells, which express low levels of EDB-fibronectin (data not shown).
The negative control cells type NHDF are primary normal fibroblast cells, which express low levels of EDB-fibronectin. The cells were plated in chamber-slides (NUNC, 60000 cells/ml). To analyses the binding potential the cells were fixed with 100% MeOH for 5 min at −20° C. To block unspecific binding, the cells were incubated with 5% Horse-serum 1 h 37° C. The cells were tested with the variant 1041-D11, an ED-B specific antibody FV28 CH4/F1 as positive control or UB—2 as negative control with different concentrations 1 h RT. The proving occurred about an incubation with rabbit-a-Strep-Tag-IgG (obtained from GenScript A00875, 1:500) for 1 h and incubation with a-rabbit-IgG*Alexa488-AK (obtained from Invitrogen A11008, 1:1000) for 1 h. The nuclei were stained with DAPI. […] The first 2 lines show the variant and positive control on Wi38-cell line.

murine Balb 3T3-cells = assay: binding to cell culture cells, Balb 3T3; type: cell-based; settings: 1, 10, 50 nM
Description: as §2
(§3) Similar experiments were performed using different cells types, for example Balb3T3 (ATCC, Kat-Nr. 30-2002), Raw (Lonza, Kat-Nr. BE12-115F/U1), ST-2 (Lonza, Ka t-Nr. BE12-115F/U1).

murine ST-2-cells = assay: binding to cell culture cells, ST-2; type: cell-based; settings: 1, 10, 50 nM
Description: as §2, §3

[6] = molecular target: T3, ED-B (F9 tumor vasculature) (Mus musculus, UniProt P11276); assay: immunohistochemistry on F9 tumor tissue sections; type: binding, mice; settings: seven samples; 10 nM to 100 nM / 500 nM
T3 construct: 1041-D11 specifically decorates the vasculature in tissue sections from F9 tumors; from tissue; host or cells: F9 tumor tissue sections from mice
T3 sequence (P11276 33-2477): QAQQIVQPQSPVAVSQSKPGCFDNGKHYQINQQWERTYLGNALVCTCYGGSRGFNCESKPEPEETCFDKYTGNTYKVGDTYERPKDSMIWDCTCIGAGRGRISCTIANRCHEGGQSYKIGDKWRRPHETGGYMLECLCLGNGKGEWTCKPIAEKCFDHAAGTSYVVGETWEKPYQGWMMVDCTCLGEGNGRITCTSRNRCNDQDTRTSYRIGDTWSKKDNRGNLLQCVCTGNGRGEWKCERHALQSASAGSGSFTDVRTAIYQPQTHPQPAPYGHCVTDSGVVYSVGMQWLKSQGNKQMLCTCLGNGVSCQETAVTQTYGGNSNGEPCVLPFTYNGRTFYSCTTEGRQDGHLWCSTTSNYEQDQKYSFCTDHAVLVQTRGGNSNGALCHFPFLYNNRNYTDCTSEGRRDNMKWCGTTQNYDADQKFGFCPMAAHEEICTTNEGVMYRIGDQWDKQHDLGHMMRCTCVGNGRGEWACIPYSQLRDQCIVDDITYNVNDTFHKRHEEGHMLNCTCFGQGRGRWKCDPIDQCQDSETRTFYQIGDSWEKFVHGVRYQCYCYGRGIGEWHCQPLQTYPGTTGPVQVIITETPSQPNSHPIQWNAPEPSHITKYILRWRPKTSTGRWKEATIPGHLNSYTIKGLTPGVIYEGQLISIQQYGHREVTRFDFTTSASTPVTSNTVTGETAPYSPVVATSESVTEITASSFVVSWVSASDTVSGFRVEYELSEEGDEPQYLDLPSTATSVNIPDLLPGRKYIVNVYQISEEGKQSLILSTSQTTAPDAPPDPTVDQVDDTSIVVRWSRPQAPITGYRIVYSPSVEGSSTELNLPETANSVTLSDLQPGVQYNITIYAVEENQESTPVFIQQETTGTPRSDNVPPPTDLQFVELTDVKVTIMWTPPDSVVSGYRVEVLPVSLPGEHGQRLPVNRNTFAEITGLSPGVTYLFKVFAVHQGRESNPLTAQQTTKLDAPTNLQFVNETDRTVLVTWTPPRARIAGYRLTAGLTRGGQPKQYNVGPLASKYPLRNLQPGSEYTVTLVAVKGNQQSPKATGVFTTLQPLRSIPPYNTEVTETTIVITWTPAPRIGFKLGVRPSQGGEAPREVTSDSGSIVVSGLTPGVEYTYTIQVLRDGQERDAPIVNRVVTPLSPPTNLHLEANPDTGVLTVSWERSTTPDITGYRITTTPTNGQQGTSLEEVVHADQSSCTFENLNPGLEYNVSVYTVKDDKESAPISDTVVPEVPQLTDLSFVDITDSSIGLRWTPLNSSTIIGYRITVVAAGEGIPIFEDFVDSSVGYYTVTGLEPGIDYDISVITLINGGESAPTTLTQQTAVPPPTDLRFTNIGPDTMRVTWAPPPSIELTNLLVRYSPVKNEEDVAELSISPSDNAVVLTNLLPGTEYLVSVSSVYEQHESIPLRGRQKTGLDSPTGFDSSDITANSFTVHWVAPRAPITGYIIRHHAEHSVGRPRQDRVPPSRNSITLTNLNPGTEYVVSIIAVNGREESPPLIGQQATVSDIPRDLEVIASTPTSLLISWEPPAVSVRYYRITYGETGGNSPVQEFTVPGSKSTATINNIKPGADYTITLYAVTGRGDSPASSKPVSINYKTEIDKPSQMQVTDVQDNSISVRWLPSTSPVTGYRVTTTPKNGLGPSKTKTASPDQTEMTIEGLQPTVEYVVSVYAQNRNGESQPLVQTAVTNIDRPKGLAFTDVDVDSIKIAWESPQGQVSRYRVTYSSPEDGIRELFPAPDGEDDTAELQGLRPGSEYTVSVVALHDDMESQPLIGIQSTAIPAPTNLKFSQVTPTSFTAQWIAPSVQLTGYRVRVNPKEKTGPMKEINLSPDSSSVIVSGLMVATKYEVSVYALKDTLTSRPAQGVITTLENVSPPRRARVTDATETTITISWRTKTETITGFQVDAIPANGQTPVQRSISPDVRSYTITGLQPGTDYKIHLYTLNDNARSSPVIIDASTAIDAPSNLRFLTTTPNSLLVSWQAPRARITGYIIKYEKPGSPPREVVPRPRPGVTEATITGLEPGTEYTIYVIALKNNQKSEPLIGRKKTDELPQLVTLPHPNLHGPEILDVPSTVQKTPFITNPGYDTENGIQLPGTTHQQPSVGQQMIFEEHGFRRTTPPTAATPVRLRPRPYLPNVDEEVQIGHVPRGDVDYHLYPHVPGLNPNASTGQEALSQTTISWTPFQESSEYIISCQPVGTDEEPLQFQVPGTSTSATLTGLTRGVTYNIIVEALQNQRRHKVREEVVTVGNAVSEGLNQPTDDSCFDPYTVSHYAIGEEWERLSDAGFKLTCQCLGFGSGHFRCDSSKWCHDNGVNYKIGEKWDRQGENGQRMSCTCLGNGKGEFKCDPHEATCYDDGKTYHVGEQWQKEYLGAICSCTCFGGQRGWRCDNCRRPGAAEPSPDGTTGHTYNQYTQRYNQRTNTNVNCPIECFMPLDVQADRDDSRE
Description: F9 tumor tissues from seven samples were evaluated. […] ED-B is a highly specific marker for tumor vasculature. The target protein EDB is located on the abluminal side of the vessels. 1041-D11 specifically decorates the vasculature in tissue sections from F9 tumors. […] Thus, fusion proteins based on modified ubiquitin specifically binding to ED-B are suitable an ED-B based targeted therapy for cancer.

[7] = test system: 48 tissues in FDA relevant panel; assay: tissue panel staining (48 tissues); type: binding
F9 tumor tissues = assay: accumulation in F9 tumor tissue; type: in vivo, mice; settings: time points between 30 min and 16 h
ED-B = ED-B (Homo sapiens, UniProt P02751); assay: ED-B binding analysis, method not stated (FIG. 7, general statements)
Sequence of ED-B (P02751 1266-1356 limits assumed): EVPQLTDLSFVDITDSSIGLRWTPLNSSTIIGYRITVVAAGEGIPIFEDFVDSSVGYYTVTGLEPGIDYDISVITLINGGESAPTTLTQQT

koff [2]	staining of F9 tumor tissue sections [6]	ED-B binding activity (ED-B)	Substance	binding to negative control fragment 6789 [1]	kon [2]	apoptosis inducing TNF-alpha activity (L929 cells)	relative tumor growth (F9 teratoma; in combination with Melphalan, 7 days, versus mTNFalpha with Melphalan or Melphalan alone)	effect on tumor growth (F9 teratoma; highest dose (6.75 μmol/g))	effect on tumor growth (F9 teratoma; lowest dose (0.25 pmol/g))	binding to EDB expressing cells (EDB expressing cells; target(+))	cross reaction in serum without ED-B (EDB expressing cells; target(−))	complex formation with 67B89 (ED-B) [3]	complex formation with 6789 (no ED-B) [4]	binding on vital Wi38 cells ([5]; different concentrations)	binding on fixed Wi38 cells ([5]; 58.7 nM and 587 nM)	binding on fixed murine Balb 3T3-cells (murine Balb 3T3-cells)	binding on fixed murine ST-2-cells (murine ST-2-cells)	unspecific staining in 48 tissues [7]	accumulation in F9 tumor tissue (F9 tumor tissues)
–	–	–	1041-D11-TNFalpha: fusion protein of hetero-dimeric variant 1041-D11 and TNFα (mouse or human)	not bound	450000 M⁻¹ s⁻¹	as active as free TNF-alpha	reduces the relative tumor growth more efficiently	no suppressing effect on tumor growth	seems to retard tumor growth	specifically binds	no cross reaction	–	–	–	–	–	–	–	–
0.00077 s⁻¹	ED-B specific vascular staining	superior ED-B binding activity	1041-D11: hetero-dimeric ubiquitin variant: K6W, L8W, K63R, E64K, S65F, T66P; second module K6T, L8Q, Q62W, K63S, E64N, S65W, T66E, Q2R	no binding	760000 M⁻¹ s⁻¹	–	–	–	–	–	–	formation of a complex; also recorded: builds a complex	no significant binding; also recorded: no complex	binds to vital Wi38 cells with high specificity	binds to fixed Wi38 cells with high specificity	binds to murine Balb 3T3 cells with high specificity	binds to murine Balb ST-2 cells with high specificity	no unspecific staining	enriched
